Results taken from ChEMBL document CHEMBL5113459 (Bioorg Med Chem Lett, 2022).

Legend:
Format in all cases: functional, cell-based
PC-3 = assay: Antiproliferative activity against human AR-negative PC-3 cells assessed as cell growth inhibition incubated for 3 days by WST-1 assay; details: PC-3, 72 h
CWR22R = assay: Antiproliferative activity against human AR-positive 22Rv1 cells assessed as cell growth inhibition incubated for 3 days by WST-1 assay; details: 22Rv1, 72 h
LNCaP = assay: Antiproliferative activity against human AR-positive LNCaP cells assessed as cell growth inhibition incubated for 3 days by WST-1 assay; details: 72 h
DU-145 = assay: Antiproliferative activity against human AR-negative DU-145 cells assessed as cell growth inhibition incubated for 3 days by WST-1 assay; details: DU-145, 72 h

IC50 (PC-3) | IC50 (LNCaP) | IC50 (DU-145) | SMILES | IC50 (CWR22R)
> 10 µM | 3.08 µM | > 10 µM | CC(C)(C)OC(=O)COCCOCCn1cc(CCOc2ccc(Cl)cc2C(=O)Nc2ccc([N+](=O)[O-])cc2Cl)nn1 | > 10 µM
> 10 µM | > 10 µM | > 10 µM | CC(C)(C)OC(=O)COCCOCCN=[N+]=[N-] | > 10 µM
2.79 µM | 1.04 µM | > 10 µM | Cc1ncsc1-c1ccc(CNC(=O)[C@@H]2C[C@@H](O)CN2C(=O)[C@@H](NC(=O)COCCOCCn2cc(CCOc3ccc(Cl)cc3C(=O)Nc3ccc([N+](=O)[O-])cc3Cl)nn2)C(C)(C)C)cc1 | 6.88 µM

Continued, compound first:

SMILES | IC50 (PC-3) | IC50 (LNCaP) | IC50 (DU-145) | IC50 (CWR22R)
Cc1ncsc1-c1ccc(CNC(=O)[C@@H]2C[C@@H](O)CN2C(=O)[C@@H](NC(=O)COCCOCCOc2ccc(Cl)cc2C(=O)Nc2ccc([N+](=O)[O-])cc2Cl)C(C)(C)C)cc1 | 2.34 µM | 2.37 µM | > 10 µM | 4.94 µM
C#CCCOc1ccc(Cl)cc1C(=O)Nc1ccc([N+](=O)[O-])cc1Cl | > 10 µM | > 10 µM | > 10 µM | > 10 µM
O=C(O)COCCOCCOc1ccc(Cl)cc1C(=O)Nc1ccc([N+](=O)[O-])cc1Cl | > 10 µM | > 10 µM | > 10 µM | > 10 µM
O=C(O)COCCOCCn1cc(CCOc2ccc(Cl)cc2C(=O)Nc2ccc([N+](=O)[O-])cc2Cl)nn1 | > 10 µM | > 10 µM | > 10 µM | > 10 µM
O=C(Nc1ccc([N+](=O)[O-])cc1Cl)c1cc(Cl)ccc1O [NICLOSAMIDE] | 1.92 µM | 0.8 µM | 3.65 µM | 1.61 µM
